Test results reported in patent US20250205341A1, “PROTEIN DELIVERY COMPOSITION CONTAINING BILE SALT AND CATIONIC PEPTIDE AND USE THEREOF” (BION INC., priority 2022, published 2025).
Non-standard residues stand in square brackets, D forms with d. No end group written: not given here.

Experiments:
Assay type in all cases: in vivo
[1] = tested on: C57BL/6 mice maintaining normal blood glucose levels; assay: Insulin absorption upon oral administration (into the stomach using a zonde), blood glucose lowering; conditions: 100 mM taurocholate + 2U/kg insulin + 0.1, 1, 10 μM SEQ6 or 1, 10, 100 μM SEQ2; FIG. 2
Experimental: Examination was made of the change in insulin absorption upon oral administration of bile salts and/or peptides represented by SEQ ID NOS: 1 to 18. The absorption rate of insulin was indicated by measuring the blood glucose-lowering rate after insulin administration.
Specifically, C57BL/6 mice maintaining normal blood glucose levels were prepared, and blood glucose levels were measured using an Accu-Chek glucometer before administering insulin with bile salts and/or cationic peptides. Insulin, along with bile salts and/or cationic peptides, was administered directly into the stomach using a zonde, and blood glucose changes were measured over time.

[2] = tested on: C57BL/6 mice maintaining normal blood glucose levels; assay: Insulin absorption in sublingual mucosal tissue, blood glucose lowering after sublingual administration; conditions: sublingual 10 μl; 100 mM taurocholate and/or 1 μM SEQ6 with 2U/kg insulin; FIG. 1
Experimental: All cationic peptides used in the experiment were synthesized by AnyGen Co., Ltd. The absorption rate of insulin was indicated by measuring the blood glucose-lowering rate after insulin administration.
Specifically, C57BL/6 mice (Orient Bio, Korea) maintaining normal blood glucose levels were anesthetized by intraperitoneal injection of Ketamine/Xylazine (100 mg/kg and 10 mg/kg, respectively) (BK Pharm, Korea). […] Each experimental group received 10 μl of the solution administered to the sublingual mucosa, and blood glucose changes were measured over time.

[3] = tested on: C57BL/6 mice maintaining normal blood glucose levels; assay: Insulin absorption upon topical (skin) application, blood glucose change; conditions: 50 μl on shaved skin, with mixture of taurocholate and SEQ6; FIG. 8
Description: Examination was made of the change in insulin absorption upon topical application due to bile salts and/or peptides represented by SEQ ID NO: 1 to SEQ ID NO: 18. The absorption rate of insulin was indicated by measuring the blood glucose-lowering rate after insulin administration. Specifically, C57BL/6 mice maintaining normal blood glucose levels were shaved on the back using a depilatory cream the day before the experiment. On the day of the experiment, the mice were anesthetized by intraperitoneal injection of Ketamine/Xylazine (100 mg/kg and 10 mg/kg, respectively). After confirming stable anesthesia, blood glucose levels were measured using an Accu-Chek glucometer before administering insulin with bile salts and/or cationic peptides. A 50 μl volume of the solution was applied to the shaved skin, and blood glucose changes were measured over time.

Row | Substance | insulin absorption (blood glucose-lowering effect) upon oral administration [1] | blood glucose-lowering rate by insulin (insulin absorption through sublingual mucosal tissue) [2] | blood glucose-lowering effect of insulin upon topical application [3]
1 | RRRRRR [SEQ2] | significantly increases in a dose-dependent manner |  | 
2 | rrrrrr ([dR][dR][dR][dR][dR][dR]) [SEQ6] | significantly increases in a dose-dependent manner | low | 
3 | insulin: insulin (Humulin N, Korea Lilly, Korea) |  |  | excellent blood glucose-lowering effect
